Experimental data as given in article PMC13147323, “EGFR-Targeted and MMP-Activated Membranolytic Peptides Kill Cancer Cells Specifically In Vitro and Reduce Tumor Growth In Vivo” (Molecular Pharmaceutics, 2026).
Residues, ends and D or L forms follow the SMILES beside them.

How the values were obtained:
[1] = tested on: red blood cells; experiment: Ex vivo hemolysis assay; format: cell-based; settings: mouse RBCs 1:50 in PBS, three doses, 1 h, 37 °C, absorbance 540 nm
Protocol: Blood was collected from five 10-week-old male C57BL/6 mice via cardiac puncture following cervical dislocation, using pediatric blood collection tubes containing K3 EDTA (Greiner; Slušovice, Czechia). Blood was centrifuged (500g; 5 min; 4 °C) and plasma was removed. Red blood cells (RBCs) were resuspended to their original volume using 150 mM NaCl. RBCs were repeatedly washed and diluted to 1:50 in PBS. For a positive control, 1% (v/v) Triton X-100 was used (100% lysis), while cells incubated in PBS served as a negative control (0% lysis). 200 μL of RBCs in triplicate was treated with peptides and incubated on an orbital shaker (100 rpm; 1 h; 37 °C). Samples were centrifuged (500g; 5 min) and supernatants, containing lysed RBCs, were collected. Hemolysis was quantified by measuring absorbance at 540 nm.
Our next aim was to assess whether our various peptides had potential as anticancer therapeutics using an in vivo model. To our knowledge, MP1 or MP1-derived peptides have not previously been used experimentally in vivo, therefore we first performed an in vitro hemolysis assay to aid selection of peptides that could be suitable for intravenous delivery. Red blood cells were isolated from mouse blood and treated with three different doses of MP1 wildtype or our targeted peptides (EGFR and EGFR-MMP versions of both MP1 and D2K) and hemolysis was measured (Figure A).

[2] = tested on: MDA-MB-231 cells; format: cell-based, human; settings: 24 h
Protocol: (§1) MDA-MB-468, MDA-MB-231, BT-474, AU-565, HB2, and MCF-10A cells were procured from American Type Culture Collection (ATCC) and validated for lack of mycoplasma contamination (MycoAlert; Lonza, Basel, Switzerland) and identity (short tandem repeat profiling; Source Bioscience, Nottingham, UK). Cells (except MCF-10A) were cultured in Dulbecco’s modified Eagle medium (DMEM) supplemented with 10% (v/v) fetal calf serum (FCS) and 100 units/mL penicillin–streptomycin (Thermo Scientific; Waltham, MA, USA). MCF-10A was cultured in DMEM supplemented with 5% horse serum, 0.1 μg/mL cholera toxin, 0.5 μg/mL hydrocortisone, 0.02 μg/mL epidermal growth factor, and 100 units/mL penicillin–streptomycin (Thermo Scientific, Waltham, MA, USA). Cells were grown at 37 °C in a humidified incubator with 5% CO2. Cells were maintained and experiments were performed under conditions ensuring cell densities that supported exponential growth.
(§2) Cells were seeded in 96-well plates at 1 × 10^4 cells/well in complete growth media and incubated for 18 h. Cells were then treated with peptides (0–250 μM) for up to 24 h. Cells were then incubated with 0.5 mg/mL MTT dissolved in PBS for 3 h. Formazan crystals were dissolved using […] of isopropanol and absorbance was measured at 570 nm on a microplate spectrophotometer (Biotech Instruments, USA). For spheroids assays, MDA-MB-468 or HB2 cells (1000 cells/well) were seeded in 250 μL of DMEM supplemented with 10% FCS and 2.5% Matrigel (Corning, New York, USA) in low-adherent, round-bottom 96-well plates (Corning, New York, USA). The plates were centrifuged at 360g for 10 min and subsequently incubated for 48 h to allow spheroid formation. MDA-MB-468 or HB2 spheroids were then treated with peptides at the IC50 doses determined for MDA-MB-468 cells for 24 h. Cellular viability within spheroids was assessed by staining with Hoechst 33342 (5 μg/mL) for 30 min, followed by propidium iodide (PI) (1.5 μg/mL) for 10 min. Red fluorescence indicated nonviable cells stained with PI, whereas blue fluorescence represented both viable and nonviable cells stained with Hoechst 33342. The survival of spheroids was determined by calculating ratios of blue/red fluorescence using ImageJ software.
(§3) A panel of human breast epithelial cell lines was established, including two lines from a nontransformed origin (MCF-10A; HB2) and four cancer lines (BT-474; AU-565; MDA-MB-231; MDA-MB-468). Cells were treated with different doses of MP1 or the modified peptides. Survival was assessed relative to untreated using MTT assays (Figures and S2) and IC50 doses were determined for each peptide in each cell line.

[3] = tested on: BT-474 cells; format: cell-based, human; settings: 24 h
Protocol: as §1, §2, §3

[4] = tested on: MDA-MB-468 cells; format: cell-based, human; settings: 24 h
Protocol: as §1, §2, §3

[5] = tested on: MCF-10A cells; format: cell-based, human; settings: 24 h
Protocol: as §1, §2, §3

[6] = tested on: HB2 cells; format: cell-based, human; settings: 24 h
Protocol: as §1, §2, §3

[7] = tested on: AU-565 cells; format: cell-based, human; settings: 24 h
Protocol: as §1, §2, §3

[8] = tested on: MDA-MB-468 xenografts; experiment: MDA-MB-468 xenograft study in NCG mice; format: in vivo, mouse; settings: 500 μg i.v. days 1, 3, 5, monitored 27 days, recovered by the end of the experiment
Protocol: These were performed by HD Biosciences (Shanghai, China). Procedures related to handling, care, and treatment of animals were performed according to guidelines approved by the HD Biosciences Institutional Animal Care and Use Committee (reference number AUC105), under the criteria of the Association for Assessment and Accreditation of Laboratory Animal Care (AAALAC). Protocols and AAALAC accreditation were reviewed by the Animal Welfare and Ethical Review Committee at the University of Leeds and were approved (reference number THAWERC222707; date 28/7/2022). Protocols and data are reported in accordance with the ARRIVE guidelines (https://arriveguidelines.org/arrive-guidelines). Female NCG mice (6–8 weeks old) were purchased from GemPharmatech Ltd. (Nanjing, China). […] Two groups were used: control group (13 animals) and test group (7 animals); group sizes were not determined by power calculation due to lack of data on which this could be based. […] Tumor volumes were monitored using calipers, and body weight was monitored throughout the experiment; no animals were excluded. […]
NCG immune-compromised female mice were implanted subcutaneously with MDA-MB-468 xenografts. […] Tumor size and animal weight were monitored every 2 to 3 days for a total of 27 days, after which animals were sacrificed and tumors were dissected and weighed. […]

Structure (SMILES): CC[C@H](C)[C@H](N)C(=O)N[C@@H](CC(=O)O)C(=O)N[C@@H](Cc1c[nH]c2ccccc12)C(=O)N[C@@H](CCCCN)C(=O)N[C@@H](CCCCN)C(=O)N[C@@H](CC(C)C)C(=O)N[C@@H](CC(C)C)C(=O)N[C@@H](CC(=O)O)C(=O)N[C@@H](C)C(=O)N[C@@H](C)C(=O)N[C@@H](CCCCN)C(=O)N[C@@H](CCC(N)=O)C(=O)N[C@H](C(=O)N[C@@H](CC(C)C)C(=O)NCC(=O)N1CCC[C@H]1C(=O)N[C@@H](CC(C)C)C(=O)NCC(=O)N[C@H](C(=O)N[C@@H](C)C(=O)NCC(=O)N[C@@H](CCC(N)=O)C(=O)N[C@@H](Cc1ccc(O)cc1)C(=O)N[C@@H](Cc1c[nH]cn1)C(=O)N[C@@H](Cc1c[nH]c2ccccc12)C(=O)N[C@@H](Cc1ccc(O)cc1)C(=O)NCC(=O)N[C@@H](Cc1ccc(O)cc1)C(=O)N[C@H](C(=O)N1CCC[C@H]1C(=O)N[C@@H](CCC(=O)O)C(=O)N[C@@H](CC(N)=O)C(=O)N[C@H](C(=O)N[C@H](C(=O)O)[C@@H](C)CC)C(C)C)[C@@H](C)O)[C@@H](C)CC)[C@@H](C)CC [EGFR-MMP-MP1] (H-IDWKKLLDAAKQILGPLGIAGQYHWYGYTPENVI-OH)
- hemolysis (in words) [1]: low hemolysis at relevant doses
- IC50 [2]: 57.9 µM
- IC50 [3]: 116 µM
- IC50 [4]: 56.6 µM
- selectivity index (IC50 noncancer line / IC50 cancer line) [4]: 1.63
- IC50 [5]: 114 µM
- IC50 [6]: 92.4 µM
- IC50 [7]: 105 µM
- animal weights as surrogate for side-effects [8]: slightly reduced
